Experimental data taken from patent US9951149B2, “Reversible heparin molecules and methods of making and using the same” (The University of North Carolina at Chapel Hill, priority 2013, dated 2018).
“Also recorded” adds a separate entry of the source.

Assays:
human factor Xa [1] = assay: Neutralization of LMWHs by protamine in vitro (anti-Xa activity); assay type: biochemical; settings: human plasma, protamine 0-90 μg/ml (FIG. 4B)
Experimental: Determination of the in vitro and ex vivo anti-Xa activity. Assays were based on a previously published method (Zhang, L. et al., J. Biol. Chem. 276, 42311-42321, 2001; Duncan et al., Biochim Biophys Acta 1671, 34-43, 2004). Briefly, human factor Xa (Enzyme Research Laboratories, South Bend, Ind., United States of America) was diluted to 50 Uml^−1 with PBS. The chromogenic substrates, S-2765 was from Diapharma (Westchester, Ohio, United States of America) and made up at 1 mgml^−1 in water. UFH (from US Pharmacopea), LOVENOX® (from local pharmacy) and LMWH Compounds 1 to 5) was dissolved in PBS at various concentrations (3 to 600 μgml^−1). The reaction mixture, which consisted of 20 μl of human plasma (Sigma-Aldrich, St. Louis, Mo., United States of America) and 8 μl of the solution containing the sample, was incubated at room temperature for 5 min. Factor Xa (100 μl) was then added. After incubating at room temperature for 4 min, 30 μl of S-2765 substrate was added. The absorbance of the reaction mixture was measured at 405 nm continuously for 5 min. The absorbance values were plotted against the reaction time. The initial reaction rates as a function of concentration were used to calculate the IC50 values.
The procedures followed a previous publication (Sundaram, M. et al., Proc. Natl. Acad. Sci. 100, 651-656, 2003). The LMWH Compounds and protamine chloride (Sigma-Aldrich) were dissolved in PBS. The concentrations of the LMWH samples for each Compound were different because each Compound has different IC50 value for the anti-Xa activity. […] The mixture (30 μl) was then subjected to anti-Xa activity measurement as described above.

antithrombin (AT) = antithrombin (AT) (Homo sapiens, UniProt P01008); assay: Binding affinity of LMWHs to antithrombin by affinity co-electrophoresis; settings: 35S-labeled compounds; average of two or three determinations
Experimental: The dissociation constant (Kd) of each sample and AT was determined using affinity co-electrophoresis (Lee, M. K. & Lander, A. D., Proc. Natl. Acad. Sci. USA 88, 2768-2772, 1991). Approximately 1500-2500 cpm of ^35S-labeled LMWH Compounds 1 to 5 was loaded per lane with zones of AT at concentrations 0, 8, 16, 32, 60, 120, 250, 500 and 1000 nM. The gel was performed at 300 mA for 2 h, dried and analyzed on a Phospholmager (Amersham Biosciences, Wauwatosa, Wis., United States of America Storm 860). The retardation coefficient was calculated at R=(M0−M)/M0, where M0 is the mobility of the polysaccharide through the zone without AT, and M is the mobility of the sample through each separation zone. The retardation coefficient was then plotted against the retardation coefficient divided by its respective concentration of AT. The slope of the line represents −1/Kd.

human factor Xa [2] = assay: Neutralization of LMWHs by protamine in mice, ex vivo anti-Xa activity in mouse plasma; settings: C57BL/6J mice, s.c. test compound, protamine 15 mgkg^−1 i.v. 30 min later, plasma 5 min later (FIG. 4C)
Experimental: The study was performed on eight week old male C57BL/6J mice (Jackson Laboratories, Bar Harbor, Me., United States of America) (n=4 per group). The mouse experiments were approved by the UNC Animal Care and Use Committees and complied with National Institutes of Health guidelines. Under isoflurane anesthesia, mice were subcutaneously administered with PBS, UFH (3 mgkg^−1), LOVENOX® (3 mgkg^−1) or Compound 5 (0.6 mgkg^−1) 30 min prior to a protamine administration. […] To obtain mouse plasma, blood samples were centrifuged at 4,000 g for 15 min at 4° C. Mouse plasma was then used to determine anti-Xa activity. Ex vivo analysis of anti-Xa activity was done similar to the in vitro study described above. Briefly, plasma (10 μl) from different groups of mice was incubated with 80 nM human factor Xa (10 μl) at room temperature for 4 minutes and S-2765 (1 mgml^−1, 30 μl) was then added. The anti-Xa activity in the mouse plasma from the PBS injected mice was defined as 100%. Statistical analysis for multiple comparisons was performed by two-way ANOVA with Bonferroni's post-hoc test (GraphPad Prism Software, La Jolla, Calif., United States of America).

mice = assay: Mouse model of tail bleeding; assay type: in vivo; settings: for effect of protamine on primary bleeding time after tail transection: protamine 15 mgkg^−1 i.v. (FIG. 4D)
Experimental: Under isoflurane anesthesia, mice (n=8 per group) were administered with PBS or Compound 5 (0.6 mgkg^−1) subcutaneously, 30 min later PBS or protamine (15 mgkg^−1) was administered via retro-orbital intravenous injection. After 5 minutes the distal part of the tail was transected at the constant diameter (1.5 mm), approximately 3-4 mm from the end. That results in both arterial and venous bleeding. […] The primary bleeding time was defined as the time to the first cessation of bleeding. Subsequently, time for each reinitiated bleeding was also recorded, and used to calculate total bleeding time. One mouse in Compound 5/protamine group received an inaccurate protamine injection and was excluded from the study. The blood collected in PBS was used to calculate total blood volume loss. Formic acid was added to samples (70:30 ratio) and absorbance was measured at 405 nm. A standard curve was generated by mixing […] of PBS with known amounts of blood. Statistical analysis between each group was performed by one-way ANOVA (GraphPad Prism Software, La Jolla, Calif., United States of America) followed by Bonferroni's multiple comparison test.

Chain of antithrombin (AT) (P01008 33-464): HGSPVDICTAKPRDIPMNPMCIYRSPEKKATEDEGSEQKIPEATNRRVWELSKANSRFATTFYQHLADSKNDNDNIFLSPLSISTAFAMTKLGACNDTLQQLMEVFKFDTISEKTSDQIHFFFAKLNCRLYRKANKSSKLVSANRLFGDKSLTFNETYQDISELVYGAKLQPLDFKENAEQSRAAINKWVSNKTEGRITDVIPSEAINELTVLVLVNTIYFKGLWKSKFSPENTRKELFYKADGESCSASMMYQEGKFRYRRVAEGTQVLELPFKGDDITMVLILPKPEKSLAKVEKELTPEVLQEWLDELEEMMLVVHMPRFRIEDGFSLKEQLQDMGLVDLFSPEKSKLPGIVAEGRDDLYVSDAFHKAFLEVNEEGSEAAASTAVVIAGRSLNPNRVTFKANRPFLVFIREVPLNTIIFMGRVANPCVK

Row | Kd (antithrombin (AT)) | Structure (SMILES) | in vitro reversibility of anti-Xa activity by protamine (human factor Xa [1]) | ex vivo reversibility of anti-FXa activity by protamine (human factor Xa [2]) | effect of protamine on blood loss after tail transection (mice; mice, Compound 5 0.6 mgkg^−1 s.c., protamine 15 mgkg^−1 i.v.) | effect of protamine on primary bleeding time after tail transection (mice; mice, Compound 5 0.6 mgkg^−1 s.c.) | effect of protamine on primary bleeding time after tail transection (mice; mice, Compound 5 0.6 mgkg^−1 s.c., listed as compound 5) | reversal of anti-Xa activity in an in vivo experiment (mice; mouse tail bleeding model, protamine)
1 | 7 nM | O=C(O)C1OC(OC2C(COS(=O)(=O)O)OC(OC3C(C(=O)O)OC(OC4C(COS(=O)(=O)O)OC(OC5C(C(=O)O)OC(Oc6ccc([N+](=O)[O-])cc6)C(O)C5O)C(NS(=O)(=O)O)C4O)C(OS(=O)(=O)O)C3O)C(NS(=O)(=O)O)C2OS(=O)(=O)O)C(O)C(O)C1OC1OC(COS(=O)(=O)O)C(O)C(O)C1NS(=O)(=O)O (stereo not drawn) [Compound 1] | Unlike Compounds 1, 2, and 3, Compound 4 was partially reversed by protamine | – | – | – | – | –
2 | 8 nM | O=C(O)C1OC(OC2C(COS(=O)(=O)O)OC(OC3C(C(=O)O)OC(OC4C(COS(=O)(=O)O)OC(OC5C(C(=O)O)OC(OC6C(COS(=O)(=O)O)OC(OC7C(C(=O)O)OC(Oc8ccc([N+](=O)[O-])cc8)C(O)C7O)C(NS(=O)(=O)O)C6O)C(OS(=O)(=O)O)C5O)C(NS(=O)(=O)O)C4O)C(OS(=O)(=O)O)C3O)C(NS(=O)(=O)O)C2OS(=O)(=O)O)C(O)C(O)C1OC1OC(COS(=O)(=O)O)C(O)C(O)C1NS(=O)(=O)O (stereo not drawn) [Compound 2] | Unlike Compounds 1, 2, and 3, Compound 4 was partially reversed by protamine | – | – | – | – | –
3 | 5 nM | O=C(O)C1OC(OC2C(COS(=O)(=O)O)OC(OC3C(C(=O)O)OC(OC4C(COS(=O)(=O)O)OC(OC5C(C(=O)O)OC(OC6C(COS(=O)(=O)O)OC(OC7C(C(=O)O)OC(OC8C(COS(=O)(=O)O)OC(OC9C(C(=O)O)OC(Oc%10ccc([N+](=O)[O-])cc%10)C(O)C9O)C(NS(=O)(=O)O)C8O)C(OS(=O)(=O)O)C7O)C(NS(=O)(=O)O)C6O)C(OS(=O)(=O)O)C5O)C(NS(=O)(=O)O)C4O)C(OS(=O)(=O)O)C3O)C(NS(=O)(=O)O)C2OS(=O)(=O)O)C(O)C(O)C1OC1OC(COS(=O)(=O)O)C(O)C(O)C1NS(=O)(=O)O (stereo not drawn) [Compound 3] | Unlike Compounds 1, 2, and 3, Compound 4 was partially reversed by protamine | – | – | – | – | –

Second part, the compound before the results:

Row | Structure (SMILES) | Kd (antithrombin (AT)) | in vitro reversibility of anti-Xa activity by protamine (human factor Xa [1]) | ex vivo reversibility of anti-FXa activity by protamine (human factor Xa [2]) | effect of protamine on blood loss after tail transection (mice; mice, Compound 5 0.6 mgkg^−1 s.c., protamine 15 mgkg^−1 i.v.) | effect of protamine on primary bleeding time after tail transection (mice; mice, Compound 5 0.6 mgkg^−1 s.c.) | effect of protamine on primary bleeding time after tail transection (mice; mice, Compound 5 0.6 mgkg^−1 s.c., listed as compound 5) | reversal of anti-Xa activity in an in vivo experiment (mice; mouse tail bleeding model, protamine)
4 | CC(=O)NC1C(OC2C(C(=O)O)OC(OC3C(COS(=O)(=O)O)OC(OC4C(C(=O)O)OC(OC5C(COS(=O)(=O)O)OC(OC6C(C(=O)O)OC(OC7C(COS(=O)(=O)O)OC(OC8C(C(=O)O)OC(OC9C(COS(=O)(=O)O)OC(OC%10C(C(=O)O)OC(OC%11C(COS(=O)(=O)O)OC(OC%12C(C(=O)O)OC(Oc%13ccc([N+](=O)[O-])cc%13)C(O)C%12O)C(NS(=O)(=O)O)C%11O)C(OS(=O)(=O)O)C%10O)C(NS(=O)(=O)O)C9O)C(OS(=O)(=O)O)C8O)C(NS(=O)(=O)O)C7O)C(OS(=O)(=O)O)C6O)C(NS(=O)(=O)O)C5O)C(OS(=O)(=O)O)C4O)C(NS(=O)(=O)O)C3OS(=O)(=O)O)C(O)C2O)OC(COS(=O)(=O)O)C(O)C1O (stereo not drawn) [Compound 4] | 30 nM | partially reversed by protamine | – | – | – | – | –
5 | CC(=O)NC1C(OC2C(C(=O)O)OC(OC3C(COS(=O)(=O)O)OC(OC4C(C(=O)O)OC(OC5C(COS(=O)(=O)O)OC(OC6C(C(=O)O)OC(OC7C(COS(=O)(=O)O)OC(OC8C(C(=O)O)OC(OC9C(COS(=O)(=O)O)OC(OC%10C(C(=O)O)OC(OC%11C(COS(=O)(=O)O)OC(OC%12C(C(=O)O)OC(Oc%13ccc([N+](=O)[O-])cc%13)C(O)C%12O)C(NS(=O)(=O)O)C%11O)C(OS(=O)(=O)O)C%10O)C(NS(=O)(=O)O)C9OS(=O)(=O)O)C(OS(=O)(=O)O)C8O)C(NS(=O)(=O)O)C7O)C(OS(=O)(=O)O)C6O)C(NS(=O)(=O)O)C5O)C(OS(=O)(=O)O)C4O)C(NS(=O)(=O)O)C3OS(=O)(=O)O)C(O)C2O)OC(COS(=O)(=O)O)C(O)C1O (stereo not drawn) [Compound 5] | 28 nM | same protamine reversibility as UFH and greater reversibility than LOVENOX®; also recorded: can be reversed by protamine | reversible | reduced the blood loss | protamine shortened the primary bleeding time | significantly shortened the primary bleeding time | can be reversed
